Test results published in publication PMC10053118, “Laccase Production from Agrocybe pediades: Purification and Functional Characterization of a Consistent Laccase Isoenzyme in Liquid Culture” (Microorganisms, 2023).

Tested on: T1, extracellular laccase (laccI) of A. pediades
T1 construct: native, partially purified from culture filtrate (Sephacryl 200), glycosylated monomer, 72 kDa native, 55-60 kDa denatured
Assay: spectrophotometric oxidation at […] nm, Michaelis-Menten nonlinear fit
Format: biochemical, Agrocybe pediades
Settings: pH 5.0; 0-2 mM substrate; air oxygen as co-substrate; read-out: apparent Km

Question: With `COc1cccc(OC)c1O` [2,6-DMP, 2,6-dimethoxyphenol] as the compound, how does the Km read?
Answer: 100 µM
